Results on 1 compound are retold here after patent US20210205292A1, “INHIBITORS OF CREB-CBP INTERACTION FOR TREATMENT OF LEUKEMIA” (The Board of Trustees of the Leland Stanford Junior …, priority 2016, published 2021).

Entries after “also recorded” stand apart in the source; their conditions may differ.

Series [1] relates to CREB-bound genes in KG-1 cells. The series is described as follows: RNA-Seq of KG-1 cells. Format: cell-based. The method, then:
For Chip-Seq experiments, KG-1 cells were treated with 5 μM Compound A or DMSO for 6 hours. Cells were cross-linked with 1% formaldehyde at room temperature for 10 min and then incubated with […] for 5 min. After cross-linking, chromatin was digested by Micrococcal nuclease and then sonicated using SimpleChIP® Plus Enzymatic Chromatin IP Kit (Cell Signaling, Danvers, Mass.) following the manufacturer's protocol. Chromatin immunoprecipitations were carried out with anti-CREB antibody (Millipore, Billerica, Mass.) or a control IgG (Santa Cruz Biotechnology). The captured immunocomplexes containing bound transcriptional DNA fragments were eluted, with recovered DNA fragments used for PCR amplification. For RNA-Seq experiments, KG-1 cells were treated with Compound A (5 μM) or 0.1% DMSO for 12 hours. RNA was prepared using the Aurum Total RNA Mini Kit (Bio-Rad). Sample libraries were run using the Illumina sequencing platform. Two hundred million reads were collected on two biological replicates of the experiment. Libraries were prepared using the Illumina Truseq RNA samples prep kit per manufacturer's instructions. Fastq files were aligned using TopHat. Aligned BAM files were used for CuffDiff calculation of differentially expressed genes. CummeRbund R package was used to infer QC of the RNA-seq (GEO Submission GSE74928) [NCBI tracking system #17594369]. ChIP-seq analysis was performed. BETA analysis was used by inferring differentially expressed genes between DMSO and Compound A treated cells based on a fdr≤0.01 and gene distance of 100 kb (Galaxy/cistrome). DNA sequences enriched on ChIP-Seq were defined.
To determine the functional specificity and downstream effects of Compound A in AML, the CREB transcriptome was first defined in KG-1 cells using CREB chromatin immunoprecipitation followed by high-throughput sequencing (CREB ChIP-Se). […] In this way, the ‘on-target’ effects of Compound A could be assessed.

For the next series, the system named is H3K27 acetylation. The series is described as follows: Western blot of total and H3K27-specific histone acetylation. To be noted: 6 or 24 hours. The series is classed as cell-based. As for the experimental part:
Cells were lysed in RIPA buffer (Sigma), and the protein concentrations were determined by BCA assay (Thermo Scientific Pierce). Lysates were solubilized in 6×SDS PAGE buffer and […] of protein was loaded into 6-15% SDS PAGE gels, pheresed, and then transferred onto […] PVDF membrane (Millipore). Primary antibodies were applied at a dilution of 1:1000. Anti-Bcl-2, -Bax, -Mcl-1, -Bcl-XL, -Cyclin A and -Cyclin D1 antibodies were purchased from Cell Signaling Technologies. Anti-total acetylated histone and -ac-H3K27 were purchased from Santa Cruz Biotechnologies. Anti-actin and -CREB antibodies were purchased from upstate. Secondary antibodies were used at a 1:2500 dilution and purchased from Thermo Scientific/Pierce. WesternBright ECL was used for image acquisition on Image Lab software (Bio-Rad).
(In general: In western blotting, separated proteins are transferred to a membrane and probed.)

Series [2] is described as follows: In vivo toxicity in NSG mice not injected with AML cells. The arrangement: species or system mouse. The method, then:
To assess the potential in vivo toxicities of Compound A, four groups of five mice not injected with AML cells were treated with 2.3 mg/kg Compound A intravenously daily, or 20, 40 or 60 mg/kg intraperitoneally (IP) daily for 28 days.

Where [3] appears, read: 2.3 mg/kg IV or 20, 40 or 60 mg/kg IP daily, 28 days.

Regarding `N#Cc1ccc(NC(=O)c2cc3ccccc3cc2O)cc1` [Compound A, N-(4-cyanophenyl)-3-hydroxy-2-naphthamide], in series [1] (5 μM, 12 hours), the “number of CREB-bound genes with greater than 50% reduced expression” value is on record as 602. Moreover, in series [1] (5 μM, 12 hours, of 4680 CREB-bound sites), the “number of CREB-bound genes with reduced expression” value was 2787. Moreover, in series [1] (KG-1 cells, RNA-Seq), the “target gene expression of other CBP-binding transcription factors (Rel, RelA, RelB, Foxo3, Foxo1, Myb)” value is reported as “no significant change”. For the same compound, in the series with H3K27 acetylation, the “H3K27 acetylation (Western blot)” value is recorded as “specific decrease in H3K27 acetylation”. For the same compound, in series [2] (setting [3]), the “complete blood counts, liver function tests and kidney function tests” value is “no difference; also recorded: normal complete blood counts, liver function tests and kidney function tests”; the tissue histology entry is “no evidence of fibrosis or damage; also recorded: no microscopic evidence of vital organ damage”. Also, in series [2] (over 28 days), the animal body weight entry is “no decrease in animal body weight”.
